US8722714B2, “Oxazolidine derivatives as NMDA antagonists” (The Honk Kong University of Science and Technology, priority 2008, dated 2014)

Experiments:
AKT = assay: Western blot detection of AKT phosphorylation in rat cortical neurons; type: cell-based; conditions: 500 μM; rat cortical neurons 11 DIV
Procedure: (§1) Embryonic day 18 Sprague Dawley rat pups were decapitated, their brains removed, and the cortices were isolated. Tissues were triturated and isolated neurons were plated onto 60 mm plate and cultured with Neurobasal medium supplemented with 2% B27 (Invitrogen). Experiments were performed after 10-12 days in vitro (DIV). Cultured cells were stimulated with a test compound or vehicle control (DMSO) for different time intervals and then lysed with RIPA buffer including protease inhibitors. Cell lysates were stored at −80° C. before use. Before being loaded, the lysates were heated to 95° C. for 10 min, vortexed and centrifuged for 7 min at 15,000×g. Supernatants were electrophoresed on 10% SDS-polyacrylamide gel and transblotted to nitrocellulose membrane. The membranes were washed with 5% (w/v) powdered milk dissolved in PBS with 0.1% Triton X-100, followed by incubation at 4° C. overnight with rabbit polyclonal against phospho-ERK or phosphor-AKT (1:1000, Cell Signaling Technology). Next, the membranes were washed and incubated with horseradish peroxidase (HRP)-conjugated secondary antibodies. The signal was visualized using ECL Western Blotting Kit. Blots were stripped and probed for total ERK or AKT expression. […]
(§2) Western blot analysis was performed on the total cell lysates. Antibodies against phospho-ERK1/2 and phospho-AKT were used and detected with HRP conjugated secondary antibodies. […]

mice = assay: Open Field Test (OFT); type: in vivo; conditions: 100 mg/kg p.o., 7 times, vs control group
adenosine A3 receptor = target: T1, adenosine A3 receptor (Homo sapiens, UniProt P0DMS8); assay: Ligand binding assay (High-throughput Profile, CEREP); conditions: [125I]AB-MECA, human A3 overexpressing cells
T1 sequence (P0DMS8 1-318): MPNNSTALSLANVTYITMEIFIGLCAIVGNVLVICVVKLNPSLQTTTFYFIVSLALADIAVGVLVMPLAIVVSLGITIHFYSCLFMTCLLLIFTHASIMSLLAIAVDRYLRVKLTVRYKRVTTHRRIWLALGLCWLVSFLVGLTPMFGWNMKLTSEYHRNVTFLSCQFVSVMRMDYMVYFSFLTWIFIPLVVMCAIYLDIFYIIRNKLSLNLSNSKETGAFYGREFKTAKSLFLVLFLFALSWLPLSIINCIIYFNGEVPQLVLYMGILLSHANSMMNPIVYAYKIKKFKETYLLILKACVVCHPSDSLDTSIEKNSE
Procedure: (§3) To determine the pharmacological profile and potential targets of LC-02, 80 binding assays were performed (High-throughput Profile, CEREP, France). LC-02 was evaluated at a single concentration in these specific binding assays. […] A cutoff of 25% is considered as a moderate effect.
(§4) Compound LC-02 (10 μM) was subjected to ligand binding assays with human A3 and rat kappa receptor overexpressing cells. Results are expressed as a percent of control specific agonist response [100-(measured specific response/control specific agonist response)×100] obtained in the presence of LC-02.

Adenosine A2A = target: T2, Adenosine A2A (Homo sapiens, UniProt P29274); assay: as above
T2 construct: CEREP, France (contract assay, High-throughput Profile)
T2 sequence (P29274 whole entry): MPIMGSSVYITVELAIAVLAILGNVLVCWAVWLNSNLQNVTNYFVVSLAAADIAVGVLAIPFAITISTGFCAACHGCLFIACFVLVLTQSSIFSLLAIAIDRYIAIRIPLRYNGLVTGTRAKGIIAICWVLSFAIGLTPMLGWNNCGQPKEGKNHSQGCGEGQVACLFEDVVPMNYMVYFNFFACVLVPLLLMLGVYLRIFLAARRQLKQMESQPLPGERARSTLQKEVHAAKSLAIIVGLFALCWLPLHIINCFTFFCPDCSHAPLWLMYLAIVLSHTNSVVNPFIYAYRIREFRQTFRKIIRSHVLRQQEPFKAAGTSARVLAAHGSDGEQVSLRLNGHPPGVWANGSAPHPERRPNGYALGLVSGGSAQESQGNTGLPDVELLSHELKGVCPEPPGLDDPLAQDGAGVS
Procedure: as §3, §4

Opioid (mu) = target: T3, Opioid (mu) (Homo sapiens, UniProt P35372); assay: as above
T3 construct: CEREP, France (contract assay, High-throughput Profile)
T3 sequence (P35372 whole entry): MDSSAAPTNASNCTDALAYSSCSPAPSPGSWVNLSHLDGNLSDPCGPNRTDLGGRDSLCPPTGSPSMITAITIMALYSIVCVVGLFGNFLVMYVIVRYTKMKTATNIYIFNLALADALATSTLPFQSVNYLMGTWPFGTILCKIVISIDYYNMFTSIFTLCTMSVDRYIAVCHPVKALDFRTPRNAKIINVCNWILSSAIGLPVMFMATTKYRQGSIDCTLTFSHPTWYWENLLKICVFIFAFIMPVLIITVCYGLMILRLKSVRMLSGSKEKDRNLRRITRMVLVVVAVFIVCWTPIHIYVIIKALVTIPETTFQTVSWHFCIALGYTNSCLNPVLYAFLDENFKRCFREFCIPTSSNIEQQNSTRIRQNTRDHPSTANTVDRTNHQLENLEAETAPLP
Procedure: as §3, §4

Opioid (delta) = target: T4, Opioid (delta) (Homo sapiens, UniProt P41143); assay: as above
T4 construct: CEREP, France (contract assay, High-throughput Profile)
T4 sequence (P41143 whole entry): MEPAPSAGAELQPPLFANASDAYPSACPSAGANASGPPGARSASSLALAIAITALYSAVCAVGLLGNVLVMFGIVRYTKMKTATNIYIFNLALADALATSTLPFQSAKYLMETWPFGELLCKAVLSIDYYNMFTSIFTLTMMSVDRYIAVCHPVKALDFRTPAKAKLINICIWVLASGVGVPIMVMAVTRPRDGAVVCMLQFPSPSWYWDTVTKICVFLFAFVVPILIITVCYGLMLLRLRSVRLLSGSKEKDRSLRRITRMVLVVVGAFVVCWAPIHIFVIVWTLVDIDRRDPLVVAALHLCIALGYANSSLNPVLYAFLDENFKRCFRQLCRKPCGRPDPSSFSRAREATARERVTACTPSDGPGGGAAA
Procedure: as §3, §4

ERK = assay: Western blot detection of ERK phosphorylation in rat cortical neurons; type: cell-based; conditions: 500 μM; rat cortical neurons 11 DIV; vs DMSO control
Procedure: as §1, §2

[1] = test system: scopolamine-induced memory deficit mice; assay: Morris Water Maze in scopolamine-induced memory deficit mice; type: in vivo; conditions: scopolamine 4 mg/kg i.p.
Procedure: 6-8 week old outbred male I.C.R. mice, weighing 25-35g were housed two per cage in a climatically controlled animal room (23-25° C.) under 12 hours light/dark cycling. The animals were allowed access to water and food ad lib. The mice used for the experiment were brought to particular laboratory conditions for two days. All the experiments were conducted between 14:00 and 18:00. Scopolamine hydrobromide (Sigma, USA) was dissolved in saline in 4 mg/kg and administered in a volume of 10 ml/kg body weight. The experimental mice were randomly assigned into 3 groups, each consisting of 12 mice with similar mean body weights and age. Test sample was dissolved in physiological saline before the experiments each day. Scopolamine was administered through intraperitoneal injection (i.p.) at 30 minutes before the swimming tasks to induce memory deficit. Oral administrations (p.o.) of the test compound, or saline (0.9%) was started at the first day of the task and administrated according to a volume of 10 ml/kg body weight. Oral drug administrations were 45 minutes before the swimming tasks and conducted daily for 4 consecutive days until the end of the task.
Each mouse was subjected to 4 trials per day for 4 consecutive days. […] The student t-test with repeated measures was used to analyze latency values, and calculated as the mean latency periods for each mouse. Data are expressed as means±S.E.M, *=P<0.05 and **=P<0.005 versus scopolamine.
Scopolamine (SCOP; 4 mg/kg) was first administered intra-peritoneally to mice to impair their memories. […] On each day, the time taken for the mice to detect the hidden platform in the water maze was measured, in seconds. Measurements were calculated as the mean latency periods for each mouse; n=24. Data are expressed as mean±s.e.m. and compared to Saline/SCOP group. […]
In FIG. 13, mice were first orally administered LC-24 (30 mg/kg), scopolamine (4 mg/kg) was i.p. administered to mice 15 min to impair their memories. […] On each day, the time taken for the mice to detect the hidden platform in the water maze was measured, in seconds. […]

Structure (SMILES): CC[C@H]1N[C@@H](CC(C)C)C(CC)(CC)O1 [LC-02]
- phosphorylation of AKT (AKT): phosphorylated within 5-15 min
- total distance travelled in the open field (mice): did not significantly differ
- inhibition at 10 µM (adenosine A3 receptor): 30%
- inhibition at 10 µM (Adenosine A2A): 6%
- inhibition at 10 µM (Opioid (mu)): 14%
- inhibition at 10 µM (Opioid (delta)): 18%
- phosphorylation of ERK (ERK): induced phosphorylation of ERK after a 15-min treatment period and persisted to 60 min
- escape latency ([1]; 30 or 100 mg/kg oral): decreases escape latencies

Structure (SMILES): CCCC1(CCC)O[C@@H](CC)N[C@H]1CC(C)C [LC-06]
- escape latency ([1]; 100 mg/kg oral, 4 days): reversed the increased escape latency induced by scopolamine

Structure (SMILES): CC[C@H]1N[C@@H](Cc2ccccc2)C(CC)(CC)O1 [LC-24]
- escape latency ([1]; 30 mg/kg oral, 4 days): reduced the increased escape latency induced by scopolamine
